Paper PMC8556085, “Antimicrobial and Antioxidant Secondary Metabolites from Trifolium baccarinii Chiov. (Fabaceae) and Their Mechanisms of Antibacterial Action” (BioMed Research International, 2021)
≈ marks a conversion by molar mass, not a printed value. Marks after values point to notes of the source that are not given here.

What was measured:
[1] = test system: Candida albicans ATCC10231; test: Broth microdilution MIC/MMC; format: cell-based
Protocol: (§1) The antimicrobial activity was performed against five bacterial and two fungal species. The selected microorganisms were the Gram-positive (Staphylococcus aureus ATCC25923, methicillin-resistant Staphylococcus aureus 03 (MRSA03), and methicillin-resistant Staphylococcus aureus 04 (MRSA04)) and Gram-negative (Pseudomonas aeruginosa ATCC27853 and Escherichia coli S2(1)) bacteria and yeast strains of Candida albicans ATCC10231 and Cryptococcus neoformans H99. These microorganisms were taken from our laboratory collection. The fungal and bacterial strains were conserved on Sabouraud Dextrose Agar (SDA, Conda, Madrid, Spain) and nutrient agar (NA, Conda) slants, respectively.
(§2) The antimicrobial activity was investigated by determining the minimum inhibitory concentrations (MICs), minimum bactericidal concentrations (MBC), and minimum fungicidal concentrations (MFCs). MICs of extracts/compounds were monitored using the broth microdilution method. Dimethyl sulfoxide (DMSO, Fisher Chemicals) was used to dissolve the test sample to produce a stock solution that was twofold serially diluted in Mueller-Hinton broth (MHB) for bacteria and Sabouraud Dextrose Broth (SDB) for fungi to obtain a concentration range of 4096 to 0.25 μg/mL. One hundred microliters of each concentration was introduced into a well (96-well microplate) containing 90 μL of SDB or MHB and 10 μL of inoculum (at 1 × 10^6 CFU/mL for bacteria and 1 × 10^5 spores/mL for yeasts) which were added to obtain a final concentration range of 2048 to 0.125 μg/mL. Plates were covered and incubated on the shaker at 37°C, 30°C, and 30°C during 24 h, 48 h, and 72 h for bacteria, Candida albicans, and Cryptococcus neoformans, respectively. The MICs were visually assessed after the incubation period and were considered the lowest sample concentration that inhibits the growth or the visual growth of the organism.
(§3) The positive controls were oxacillin (Sigma-Aldrich, Steinheim, Germany) for bacteria and nystatin (Sigma-Aldrich, Steinheim, Germany) for yeasts, and the negative control was broth with 20 μL of DMSO. The assay was carried out in triplicate.

[2] = test system: Cryptococcus neoformans H99; test: Broth microdilution MIC/MMC; format: cell-based
Protocol: as §1, §2, §3

[3] = test system: Escherichia coli S2(1); test: Broth microdilution MIC/MMC; format: cell-based
Protocol: as §1, §2, §3

[4] = test system: Pseudomonas aeruginosa ATCC27853; test: Broth microdilution MIC/MMC; format: cell-based
Protocol: as §1, §2, §3

[5] = test system: Staphylococcus aureus ATCC25923; test: Broth microdilution MIC/MMC; format: cell-based
Protocol: as §1, §2, §3

[6] = test system: methicillin-resistant Staphylococcus aureus 03 (MRSA03); test: Broth microdilution MIC/MMC; format: cell-based
Protocol: as §1, §2, §3

[7] = test system: methicillin-resistant Staphylococcus aureus 04 (MRSA04); test: Broth microdilution MIC/MMC; format: cell-based
Protocol: as §1, §2, §3

[8] = test system: tested bacteria and yeasts; test: Broth microdilution MIC/MMC, summary over all strains; format: cell-based
Protocol: as §1, §2, §3

[9] = DPPH free radical scavenging assay; details: mean ± SD
Protocol: The free radical scavenging activity of extracts and compounds was evaluated according to the described method. The EC50 (μg/mL), which is the amount of sample necessary to inhibit by 50% the absorbance of free radical DPPH, was calculated. Vitamin C was used as a standard control. All the analyses were carried out in triplicate and repeated three times.

[10] = Gallic acid equivalent antioxidant capacity (GEAC) assay; details: ABTS radical, 420 nm, 240 s; mean ± SD
Protocol: The GEAC test was performed as described previously with some slight modifications. The laccase was purified from Sclerotinia sclerotiorum according to the described protocol. 20 μL of laccase (1 mM stock solution), 20 μL of test sample, 10 μL of ABTS (2,2′-azino-bis(3-ethylbenzothiazoline-6-sulfonic acid) (74 mM stock solution), and 950 μL of acetate buffer (pH = 5.0, 100 mM) were added in a quartz cuvette. The concentrations of the samples in the assay mixture were 800, 400, 200, 100, and 10 μg/mL for the extracts and 200, 100, 50, 25, and 12.5 μg/mL for the isolated compounds. The content of the generated ABTS^●+ radical was measured at 420 nm after 240 s reaction time and was converted to gallic acid equivalents by the use of a calibration curve (Pearson's correlation coefficient: r = 0.998) constructed with 0, 4, 10, 14, 28, 56, and 84 μM gallic acid standards rather than Trolox. Experiments were done in triplicate and repeated three times with similar results.

[11] = test system: Gram-positive (S. aureus, S. epidermidis) and Gram-negative (P. aeruginosa) bacteria; set-up: method as in PMID 26887239; details: cited from earlier work
[12] = test system: yeasts (C. albicans, C. tropicalis, and C. neoformans); set-up: method as in PMID 26887239; details: cited from earlier work
[13] = set-up: method as in doi:10.22159/ijpps.2017v9i2.13964; details: cited from earlier work
[14] = set-up: method as in doi:10.22159/ijpps.2017v9i2.13964; details: cited from earlier work; remark: listed apart in the source
[15] = set-up: method as in doi:10.22159/ijpps.2017v9i2.13964; details: cited from earlier work; remark: listed apart in the source
[16] = set-up: method as in doi:10.22159/ijpps.2017v9i2.13964; details: cited from earlier work; remark: listed apart in the source
[17] = set-up: method as in doi:10.22159/ijpps.2017v9i2.13964; details: cited from earlier work; remark: listed apart in the source
[18] = Pseudomonas aeruginosa ATCC27853
[19] = Staphylococcus aureus ATCC25923

COc1ccc(-c2coc3cc(O)ccc3c2=O)cc1 [compound 2, formononetin]
MFC ([1]; Candida albicans ATCC10231): 128 µg/mL (≈ 477 µM) | MMC/MIC ([1]; Candida albicans ATCC10231): 2 | MIC ([1]; Candida albicans ATCC10231, 48 h, 30°C, read-out: MIC): 64 µg/mL (≈ 239 µM) | MFC ([2]; Cryptococcus neoformans H99): 64 µg/mL (≈ 239 µM) | MMC/MIC ([2]; Cryptococcus neoformans H99): 1 | MIC ([2]; Cryptococcus neoformans H99, 72 h, 30°C, read-out: MIC): 64 µg/mL (≈ 239 µM) | MBC [3]: 128 µg/mL (≈ 477 µM) | MMC/MIC [3]: 2 | MIC ([3]; 24 h, 37°C, read-out: MIC): 64 µg/mL (≈ 239 µM) | MBC [4, 18]: 128 µg/mL (≈ 477 µM) | MMC/MIC [4, 18]: 1 | MIC ([4]; Pseudomonas aeruginosa ATCC27853, 24 h, 37°C, read-out: MIC): 128 µg/mL (≈ 477 µM) | MBC [5, 19]: 128 µg/mL (≈ 477 µM) | MMC/MIC [5, 19]: 2 | MIC ([5]; Staphylococcus aureus ATCC25923, 24 h, 37°C, read-out: MIC): 64 µg/mL (≈ 239 µM) | MMC/MIC ([6]; MRSA03): 2 | MBC ([6]; Staphylococcus aureus, MRSA03): 256 µg/mL (≈ 954 µM) | MIC ([6]; Staphylococcus aureus, MRSA03, 24 h, 37°C, read-out: MIC): 128 µg/mL (≈ 477 µM) | MMC/MIC ([7]; MRSA04): 2 | MBC ([7]; Staphylococcus aureus, MRSA04): 256 µg/mL (≈ 954 µM) | MIC ([7]; Staphylococcus aureus, MRSA04, 24 h, 37°C, read-out: MIC): 128 µg/mL (≈ 477 µM) | antimicrobial activity class of pure compounds by cutoff points ([8]; against specific microorganism, cutoff points of ref 33): moderate/low | MIC ([8]; read-out: MIC (range over the tested microorganisms)): 64 to 128 µg/mL (≈ 239 to 477 µM) | DPPH free radical scavenging activity (EC50) [9]: 6.39 ± 0.62^e μg/mL | Gallic acid equivalent antioxidant capacity (GEAC) [10]: 77.91 ± 0.59^e μg/mL | minimum inhibitory concentration [11]: 200 µg/mL (≈ 746 µM) | minimum inhibitory concentration [12]: 25 µg/mL (≈ 93.2 µM) | IC50 against DPPH [13]: 4.65 µg/mL (≈ 17.3 µM) | IC50 against hydroxyl radical [14]: 9.48 µg/mL (≈ 35.3 µM) | IC50 against hydrogen peroxide [15]: 4.75 µg/mL (≈ 17.7 µM) | IC50 against nitric oxide [16]: 5.0 µg/mL (≈ 18.6 µM) | IC50 against superoxide radical [17]: 4.27 µg/mL (≈ 15.9 µM)
